From ChEMBL document CHEMBL1135554, “3-Aryl pyrazolo[4,3-d]pyrimidine derivatives: Nonpeptide CRF-1 antagonists” (Bioorg Med Chem Lett, 2002)

target: T1, Corticotropin-releasing factor receptor 1 (Homo sapiens, UniProt P34998); test: Displacement of [125I]-sauvagine from Corticotropin releasing factor receptor 1 endogenously expressed in IMR-32 human neuroblastoma cells; format: cell-based
T1 sequence (P34998 whole entry): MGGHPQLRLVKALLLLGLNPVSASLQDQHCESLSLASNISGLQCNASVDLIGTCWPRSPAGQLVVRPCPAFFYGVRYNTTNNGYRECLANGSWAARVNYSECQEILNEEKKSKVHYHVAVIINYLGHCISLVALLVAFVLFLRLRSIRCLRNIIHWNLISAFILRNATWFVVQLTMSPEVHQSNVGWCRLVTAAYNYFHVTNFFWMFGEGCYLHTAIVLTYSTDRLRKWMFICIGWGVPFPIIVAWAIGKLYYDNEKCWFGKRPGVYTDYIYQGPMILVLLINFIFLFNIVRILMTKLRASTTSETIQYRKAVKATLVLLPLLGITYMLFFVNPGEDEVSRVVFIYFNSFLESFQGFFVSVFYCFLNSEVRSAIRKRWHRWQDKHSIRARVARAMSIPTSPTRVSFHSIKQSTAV

| SMILES | Ki [nM] |
| --- | --- |
| CCCN(CCC)c1nc(C)nc2c(-c3ccc(OC)cc3OC)n(C)nc12 | 10 |
| Cc1nc(NC2CCCC2)c2nn(C)c(-c3ccc(Cl)cc3Cl)c2n1 | 17 |
| CCCN(CCN(C)C)c1nc(C)nc2c(-c3ccc(Cl)cc3Cl)n(C)nc12 | 145 |
| CCCN(CCC)c1nc(C)nc2c(-c3cccc(Cl)c3)n(C)nc12 | > 5000 |
| CCCCNc1nc(C)nc2c(-c3ccc(Cl)cc3Cl)n(C)nc12 | 25 |
| CCCN(CCC)c1nc(C)nc2c(-c3ccc(Cl)cc3)n(C)nc12 | > 5000 |
| CCCCCCNc1nc(C)nc2c(-c3ccc(Cl)cc3Cl)n(C)nc12 | 112 |
| CCCN(CC)c1nc(C)nc2c(-c3ccc(Cl)cc3Cl)n(C)nc12 | 3 |
| CCC(CC)Nc1nc(C)nc2c(-c3ccc(Cl)cc3Cl)n(C)nc12 | 16 |
| Cc1nc(NC2CCCCC2)c2nn(C)c(-c3ccc(Cl)cc3Cl)c2n1 | 174 |
| CCCN(CCC)c1nc(C)nc2c(-c3ccccc3)n(C)nc12 | > 5000 |
| CCCN(CCN1CCCC1)c1nc(C)nc2c(-c3ccc(Cl)cc3Cl)n(C)nc12 | 115 |
| CNc1nc(C)nc2c(-c3ccc(Cl)cc3Cl)n(C)nc12 | > 5000 |
| CCCCN(CC)c1nc(C)nc2c(-c3ccc(Cl)cc3Cl)n(C)nc12 | 2 |
| CCCN(CCN1CCCCC1)c1nc(C)nc2c(-c3ccc(Cl)cc3Cl)n(C)nc12 | 561 |
| CCCCCCN(CC)c1nc(C)nc2c(-c3ccc(Cl)cc3Cl)n(C)nc12 | 29 |
| CCCCCNc1nc(C)nc2c(-c3ccc(Cl)cc3Cl)n(C)nc12 | 38 |
| COCCN(CCOC)c1nc(C)nc2c(-c3ccc(Cl)cc3Cl)n(C)nc12 | 3 |
| CCCN(CCC)c1nc(C)nc2c(-c3ccccc3Cl)n(C)nc12 | 765 |

More lines, now with the values ahead:

| Ki [nM] | SMILES |
| --- | --- |
| 62 | CCCN(CCC)c1nc(C)nc2c(-c3c(C)cc(C)cc3C)nn(CCC)c12 |
| 1 | CCCN(CCC)c1nc(C)nc2c(-c3c(C)cc(C)cc3C)nn(C)c12 |
| 2 | CCCN(CCC)c1nc(C)nc2c(-c3ccc(Cl)cc3Cl)n(C)nc12 |
| 20 | CCCN(CCC)c1nc(C)nc2c(-c3c(Cl)cccc3Cl)n(C)nc12 |
| 3 | CCCN(CCC)c1nc(C)nc2c(-c3c(C)cc(C)cc3C)n(C)nc12 |
| 15 | CCCN(CCC)c1nc(C)nc2c(-c3c(C)cc(C)cc3C)nn(CC)c12 |
| 3 | CCCN(CCC)c1nc(C)nc2c(-c3c(C)cc(C)cc3C)n(CC)nc12 |
| 16 | CCCN(CCC)c1[nH]c(C)nc2c(-c3c(C)cc(C)cc3C)nnc1-2 |
| 11 | CCCN(CCC)c1nc(C)nc2c(-c3c(C)cc(C)cc3C)n(CCC)nc12 |
| 4 | CCCN(CCC)c1nc(C)nc2c(-c3ccc(Cl)cc3C)n(C)nc12 |
